The structures appear in SMILES notation.

In experiment [1] the target is Macrophage metalloelastase (Homo sapiens, UniProt P39900). Description: Inhibition of human recombinant MMP12 after 1 hr.
Experiment [2] addresses 72 kDa type IV collagenase (Homo sapiens, UniProt P08253). Description: Inhibition of human recombinant MMP2 after 1 hr.
Experiment [3] concerns the target Matrix metalloproteinase-9 (Homo sapiens, UniProt P14780). Description: Inhibition of human recombinant MMP9 after 1 hr.
Another experiment deals with Stromelysin-1 (Homo sapiens, UniProt P08254). Nature of the experiment: Inhibition of human recombinant MMP3 after 1 hr.
Stromelysin-1, sequence (P08254 whole entry): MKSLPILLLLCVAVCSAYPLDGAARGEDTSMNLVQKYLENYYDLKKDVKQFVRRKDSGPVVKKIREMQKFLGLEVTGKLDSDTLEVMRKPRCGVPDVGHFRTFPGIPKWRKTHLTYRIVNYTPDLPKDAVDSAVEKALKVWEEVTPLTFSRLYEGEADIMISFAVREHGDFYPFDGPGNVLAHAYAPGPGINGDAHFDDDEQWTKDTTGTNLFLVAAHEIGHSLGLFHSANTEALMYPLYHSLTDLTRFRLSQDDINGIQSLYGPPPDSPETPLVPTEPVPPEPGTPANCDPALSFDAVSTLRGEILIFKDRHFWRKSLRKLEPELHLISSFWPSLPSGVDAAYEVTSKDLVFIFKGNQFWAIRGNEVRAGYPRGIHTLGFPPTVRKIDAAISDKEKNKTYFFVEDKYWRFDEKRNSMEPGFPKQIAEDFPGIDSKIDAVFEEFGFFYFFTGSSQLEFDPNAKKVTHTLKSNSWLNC

Matrix metalloproteinase-9, sequence (P14780 whole entry): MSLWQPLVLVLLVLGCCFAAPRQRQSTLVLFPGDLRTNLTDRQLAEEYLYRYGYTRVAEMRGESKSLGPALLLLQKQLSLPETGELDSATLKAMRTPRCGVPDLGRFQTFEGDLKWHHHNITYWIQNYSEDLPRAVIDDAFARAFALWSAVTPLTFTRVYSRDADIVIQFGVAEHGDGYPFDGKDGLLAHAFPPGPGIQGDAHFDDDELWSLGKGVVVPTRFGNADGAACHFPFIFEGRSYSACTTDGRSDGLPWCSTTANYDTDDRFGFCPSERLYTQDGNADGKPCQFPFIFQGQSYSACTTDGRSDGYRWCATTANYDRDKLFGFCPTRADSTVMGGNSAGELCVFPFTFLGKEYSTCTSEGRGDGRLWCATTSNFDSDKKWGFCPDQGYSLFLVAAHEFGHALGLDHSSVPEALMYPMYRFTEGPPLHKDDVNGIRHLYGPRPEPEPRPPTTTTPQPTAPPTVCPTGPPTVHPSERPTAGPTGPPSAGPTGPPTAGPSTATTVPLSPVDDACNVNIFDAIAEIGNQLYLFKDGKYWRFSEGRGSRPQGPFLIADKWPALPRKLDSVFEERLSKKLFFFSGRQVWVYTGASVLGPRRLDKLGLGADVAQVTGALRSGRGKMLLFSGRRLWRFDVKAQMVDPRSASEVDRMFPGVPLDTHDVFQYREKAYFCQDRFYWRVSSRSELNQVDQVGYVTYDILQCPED
Macrophage metalloelastase, sequence (P39900 whole entry): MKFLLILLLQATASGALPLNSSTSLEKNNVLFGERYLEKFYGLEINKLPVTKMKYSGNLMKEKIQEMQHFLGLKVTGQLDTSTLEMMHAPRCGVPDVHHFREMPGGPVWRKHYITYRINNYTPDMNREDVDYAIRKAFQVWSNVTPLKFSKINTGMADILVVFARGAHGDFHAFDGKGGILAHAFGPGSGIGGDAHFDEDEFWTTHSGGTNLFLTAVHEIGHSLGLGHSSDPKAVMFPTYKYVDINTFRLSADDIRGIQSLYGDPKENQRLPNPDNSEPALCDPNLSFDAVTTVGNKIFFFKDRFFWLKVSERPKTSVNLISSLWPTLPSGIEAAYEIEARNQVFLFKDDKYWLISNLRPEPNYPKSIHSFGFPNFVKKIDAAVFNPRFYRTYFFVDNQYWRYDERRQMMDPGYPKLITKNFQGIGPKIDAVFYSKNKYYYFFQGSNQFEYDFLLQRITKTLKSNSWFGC
72 kDa type IV collagenase, sequence (P08253 whole entry): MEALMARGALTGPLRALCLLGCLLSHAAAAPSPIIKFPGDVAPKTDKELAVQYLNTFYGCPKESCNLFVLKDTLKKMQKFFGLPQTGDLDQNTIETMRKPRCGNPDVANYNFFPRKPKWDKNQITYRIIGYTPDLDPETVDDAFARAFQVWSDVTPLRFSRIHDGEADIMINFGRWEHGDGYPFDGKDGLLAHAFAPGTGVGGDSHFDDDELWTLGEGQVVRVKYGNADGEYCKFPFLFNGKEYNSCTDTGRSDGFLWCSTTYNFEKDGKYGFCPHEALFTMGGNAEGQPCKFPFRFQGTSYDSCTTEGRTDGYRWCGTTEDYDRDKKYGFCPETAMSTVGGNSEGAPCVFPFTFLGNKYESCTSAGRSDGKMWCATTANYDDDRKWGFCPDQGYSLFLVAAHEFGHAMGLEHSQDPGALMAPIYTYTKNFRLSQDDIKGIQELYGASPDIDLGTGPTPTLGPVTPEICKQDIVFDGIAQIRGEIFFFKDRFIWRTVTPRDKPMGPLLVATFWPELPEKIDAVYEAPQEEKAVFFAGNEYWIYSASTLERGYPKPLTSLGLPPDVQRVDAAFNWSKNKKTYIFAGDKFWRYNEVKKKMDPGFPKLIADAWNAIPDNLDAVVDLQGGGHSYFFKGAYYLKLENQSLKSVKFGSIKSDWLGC

The term IC50 denotes the concentration that gives 50% inhibition. For `O=P(O)(O)C(Cl)(Cl)P(=O)(O)O` [CLODRONIC ACID], the concentration for half-maximal inhibition (IC50) was 121 µM in experiment [1], 145 µM in experiment [2], 320 µM in experiment [3] and 300 µM on Stromelysin-1.

Values taken from ChEMBL document CHEMBL1145450, “Platinum complexes can inhibit matrix metalloproteinase activity: platinum-diethyl[(methylsulfinyl)methyl]phosphonate complexes as inhibitors of matrix metalloproteinases 2, 3, 9, and 12” (J Med Chem, 2007).
